Assay: Mouse urine: fluorescence of extracted urine after injection
Assay type: in vivo
Details: mice, urine extracted with acetonitrile:methanol mix, imaged on Odyssey CLx imager
Excerpt: The urine is extracted with an acetonitrile:methanol mix and imaged on an Odyssey CLx imager (LI-COR Biosciences).

fluorescent signal in urine: No fluorescent signal
Compound: CC1(C)C(/C=C/C=C/C=C/C=C2\N(CCCCS(=O)(=O)O)c3ccc4ccccc4c3C2(C)C)=[N+](CCCCS(=O)(=O)[O-])c2ccc3ccccc3c21 [ICG, indocyanine green]

Reference: US10758631B2, “Solid cyanine dyes” (LI-COR, Inc., priority 2017, dated 2020)
